Where no end group is shown, it is not given here.
The compounds below were run against HLA class I molecule (assay: HLA class I peptide binding affinity assay (inhibition of 125I-radiolabeled probe peptide binding to purified HLA)). Conditions: Allele A11.01; read-out: Observed Affinity (IC50; (nM)).
Design: species or system human
Protocol: Epstein-Barr virus (EBV)-transformed homozygous cell lines, fibroblasts, CIR, or 721.22 transfectants are used as sources of HLA class I molecules. […] HLA molecules are purified from lysates by affinity chromatography. The lysates are passed over a column of Sepharose CL-4B beads coupled to an appropriate antibody. […] A 1/25 volume of 2.0 M Tris, pH 6.8, is added to the eluate to reduce the pH to […]. Eluates are then concentrated by centrifugation in Centriprep 30 concentrators (Amicon, Beverly, MA). Protein content is evaluated by a BCA protein assay (Pierce Chemical Co., Rockford, IL) and confirmed by SDS-PAGE.
Following incubation, MHC-peptide complexes are separated from free peptide by gel filtration on 7.8 mm×15 cm TSK200 columns (TosoHaas 16215, Montgomeryville, PA). Because the large size of the radiolabeled peptide used for the DRB1*1501 (DR2w2(31) assay makes separation of bound from unbound peaks more difficult under these conditions, all DRB1*1501 (DR2w2(31) assays were performed using a 7.8 mm×30 cm TSK2000 column eluted at 0.6 mLs/min. The eluate from the TSK columns is passed through a Beckman 170 radioisotope detector, and radioactivity is plotted and integrated using a Hewlett-Packard 3396A integrator, and the fraction of peptide bound is determined.
Radiolabeled peptides are iodinated using the chloramine-T method. […] All subsequent inhibition and direct binding assays are performed using these HLA concentrations.
Since under these conditions [label]<[HLA] and IC50≥[HLA], the measured IC50 values are reasonable approximations of the true KD values. […] For database purposes, and inter-experiment comparisons, relative binding values are compiled. These values can subsequently be converted back into IC50 nM values by dividing the IC50 nM of the positive controls for inhibition by the relative binding of the peptide of interest.
HLA binding assays were used to evaluate either the affinity of interaction of a given epitope with a selected HLA molecule or the stability.
The measurements are plotted against the predicted affinity in FIG. 1.

| Compound | IC50 |
| --- | --- |
| AMTTSSSQK | 162 nM |
| SLKKVPALK | 129 nM |

Continued, values first:

| IC50 | Compound |
| --- | --- |
| 9.8 nM | KISNWSLKK |
| 15.8 nM | SAMTTSSSQK |

Same assay, conditions: allele A01.01; read-out: Observed Affinity (IC50; (nM))

| Compound | IC50 |
| --- | --- |
| LTSTVQLIM | 2890 nM |
| CSCC[C@H](N)C(=O)N[C@@H](C)C(=O)N[C@@H](CC(N)=O)C(=O)NCC(=O)N[C@@H](CO)C(=O)N[C@@H](CC(C)C)C(=O)N[C@@H](CC(C)C)C(=O)N[C@@H](CC(N)=O)C(=O)N[C@@H](Cc1ccc(O)cc1)C(=O)O | 439 nM |
| CC[C@H](C)[C@H](NC(=O)[C@H](CC(C)C)NC(=O)[C@H](CCC(N)=O)NC(=O)[C@@H](NC(=O)[C@@H](NC(=O)[C@H](CO)NC(=O)[C@@H](NC(=O)[C@H](CC(C)C)NC(=O)[C@@H](N)CS)[C@@H](C)O)[C@@H](C)O)C(C)C)C(=O)N[C@@H](CCSC)C(=O)O | 11000 nM |
| YTTNAFSGEY | 10.5 nM |
| TGSNEVTTRY | 15500 nM |
| LSFLSSWDY | 52.9 nM |
| YMANGSLLNY | 13.2 nM |
| GSNEVTTRY | 606 nM |
| CLSFLSSWDY | 987 nM |
| ILDTAGHEEY | 64.2 nM |
| MSDTTYKIY | 10.2 nM |
| CC[C@H](C)[C@H](N)C(=O)N[C@@H](CC(C)C)C(=O)N[C@@H](CC(=O)O)C(=O)N[C@H](C(=O)N[C@@H](C)C(=O)NCC(=O)N[C@@H](CCCCN)C(=O)N[C@@H](CCC(=O)O)C(=O)N[C@@H](CCC(=O)O)C(=O)N[C@@H](Cc1ccc(O)cc1)C(=O)O)[C@@H](C)O | 14.3 nM |
| VMSDTTYKIY | 376 nM |
| TTNAFSGEY | 4.4 nM |
| ILDTAGREEY | 7 nM |
| ILDTAGLEEY | 8.6 nM |

Same assay, conditions: allele A02.01; read-out: Observed Affinity (IC50; (nM))

| Compound | IC50 |
| --- | --- |
| FILMELMAGG | 1580 nM |
| QTGVMICAYL | 9760 nM |
| IVSRTLLLV | 12.7 nM |
| NVVPLNDLLL | 4190 nM |
| PLNDLLLEML | 12000 nM |
| VQWRSLGSL | 4730 nM |
| LLGRNSFEVC | 2080 nM |
| LLSTPPLSPS | 1770 nM |
| KITEQEKDFL | 1400 nM |
| SLYIVGFYG | 1060 nM |
| ITAFFFCWI | 7490 nM |
| CC[C@H](C)[C@H](NC(=O)[C@H](CC(C)C)NC(=O)[C@H](CCC(N)=O)NC(=O)[C@@H](NC(=O)[C@@H](NC(=O)[C@H](CO)NC(=O)[C@@H](NC(=O)[C@H](CC(C)C)NC(=O)[C@@H](N)CS)[C@@H](C)O)[C@@H](C)O)C(C)C)C(=O)N[C@@H](CCSC)C(=O)O | 716 nM |
| QLIMQLMPFG | 5930 nM |
| QQSDLQPPA | 70 nM |
| ILMELMAGGD | 3450 nM |
| IANLLGACTI | 6420 nM |
| FVMSDTTYKI | 62.4 nM |
| IIEFMTYGNL | 9700 nM |
| VVPLCDLLL | 1200 nM |
| ALAPTLTHML | 39 nM |
| FFFSVIFST | 4560 nM |
| KLFSCLSFLS | 0.6 nM |
| YLTKWPKFFL | 42.9 nM |
| RLSSCVPVAL [RLSSCVPVAL] | 54.2 nM |
| NVVPLCDLL | 3030 nM |
| CC[C@H](C)[C@H](NC(=O)[C@@H]1CCCN1C(=O)[C@H](CC(C)C)NC(=O)[C@@H](N)CC(C)C)C(=O)N1CCC[C@H]1C(=O)N1CCC[C@H]1C(=O)N[C@@H](CC(C)C)C(=O)N[C@@H](CO)C(=O)N1CCC[C@H]1C(=O)N[C@@H](CO)C(=O)O | 449 nM |
| LVVVGADGV | 1190 nM |
| KSLVRLSSCV | 280 nM |
| NVVPLSDLL | 916 nM |

Other lines, results leading:

| IC50 | Compound |
| --- | --- |
| 139 nM | ALMSAMTTS |
| 1240 nM | LVRLSSCVPV |
| 3280 nM | FQNGKMALS [FQNGKMALS] |
| 6.7 nM | ILLPEDTPPL |
| 8.1 nM | AIQPVLWTT |
| 10700 nM | TIGGPTLVII |
| 670 nM | AQAGVQWRSL |
| 93.2 nM | FLLALWECS |
| 324 nM | FLSSWDYRRM |
| 10900 nM | LIVSRTLLLV |
| 1.3 nM | RLWHLLLQV |
| 2.8 nM | LLPEDTPPL |
| 78.7 nM | ITAFFLLDI |

— patent US20230414735A1, “NEOANTIGENS AND METHODS OF THEIR USE” (priority 2016, published 2023)
